# Values quoted from earlier work in patent US20220134131A1, “ENERGY AUGMENTATION STRUCTURES FOR MEASURING AND THERAPEUTIC USES” (IMMUNOLIGHT, LLC, priority 2019, published 2022).
# System: HT-29 cells
smiles,measurement,value
"OO [H2O2, hydrogen peroxide]",effect of application on HT-29 cells,caused their death
